Experimental data: patent US12459925B2, “Sulphonyl urea derivatives as NLRP3 inflammasome modulators” (priority 2017, dated 2025)

System: IL-1β release upon NLRP3 activation in peripheral blood mononuclear cells (PBMC)
Assay: PBMC IC50 determination assay (IL-1β release, Protocol A ELISA / Protocol B HTRF)
Type: cell-based
Details: Homo sapiens, PBMC, read-out: Average PBMC IC50 (μM)
Description: The compounds of the present disclosure were tested for their inhibitory activity against IL-1β release upon NLRP3 activation in peripheral blood mononuclear cells (PBMC).
Isolated cells were seeded into the wells of a 96-well plate and incubated for 3 h with lipopolysaccharide (LPS). Following medium exchange, the compounds of the present disclosure were added (a single compound per well) and the cells were incubated for 30 min. Next, the cells were stimulated either with ATP (5 mM) or nigericin (10 μM) for 1 h and the cell culture media from the wells were collected for further analysis.
The release of IL1-β into the media was determined by a quantitative detection of IL-1β in the media using an IL-1β enzyme-linked immunosorbent assay (ELISA) Ready-SET-Go!, eBioscience cat. […] Subsequently, plates were blocked with blocking buffer for 1 h at room temperature (rt) and after washing with a buffer (PBS with 0.05% Tween-20) incubated with protein standard and culture media. […] Plates were washed and incubated with HRP-streptavidin for 30 min at rt and washed again. The signal was developed after addition of 3,3′,5,5′-tetramethylbenzidine-peroxidase (TMB) until colour appeared and the reaction was stopped by 2 M H2SO4. A microplate spectrophotometer (BioTek) was used to detect signals with 450 nm. The detection range of IL-1β ELISA was 2-150 ng/ml.
Isolated cells were seeded into the wells (280,000 cells/well) of a 96-well plate and incubated for 3 h with lipopolysaccharide (LPS, 1 μg/ml diluted 1000× from a 1 mg/ml stock solution). The compounds of the present disclosure were added (a single compound per well) and the cells were incubated for 30 min. Next, the cells were stimulated with ATP (5 mM final concentration diluted 20× from a 100 mM stock solution) for 1 h and the cell culture media from the wells were collected for further analysis.
The release of IL-1β into the media was determined by quantitative detection of IL-1β in the media using HTRF®, CisBio cat. No. 62HIL1BPEH. Briefly, cell culture supernatant were dispensed directly into the assay plate containing antibodies labelled with the HTRF® donor and acceptor. A microplate spectrophotometer (BMG) was used to detect signals at 655 nm and 620 nm. The detection range of IL-1β HTRF® was 39-6500 pg/ml.

First: CN1CCC(N(c2cn[nH]c2)S(=O)(=O)NC(=O)Nc2c3c(cc4c2CCC4)CCC3)CC1 [Compound 40]
Second: O=C(Nc1c2c(cc3c1CCC3)CCC2)NS(=O)(=O)N(c1cn[nH]c1)C1CCOCC1 [Compound 48]
The IC50 of the first is higher: 1 to 3 µM for the first, under 1 µM for the second.

Compound `Cn1cc(N(C2CCN(CC(F)F)CC2)S(=O)(=O)NC(=O)Nc2c3c(cc4c2CCC4)CCC3)cn1` [Compound 45] has an IC50 of 1 to 3 µM.

Same assay, conditions: Homo sapiens; PBMC primed with LPS 3 h, compound 30 min, stimulated with ATP (5 mM) or nigericin (10 μM) 1 h; IL-1β in media; read-out: Average PBMC IC50

`Cn1cc(N(CC2COC2)S(=O)(=O)NC(=O)Nc2c3c(cc4c2CCC4)CCC3)cn1` [Compound 16] and `CN1CCC1CN(c1cnn(C)c1)S(=O)(=O)NC(=O)Nc1c2c(cc3c1CCC3)CCC2` (centres unmarked) [Compound 111] cannot be ordered by IC50: under 1 µM for the first, under 1 µM for the second.

First: CC(C)c1cccc(NC(=O)NS(=O)(=O)N(c2cnn(C)c2)C2CCOCC2)c1 [Compound 71]
Second: CC(C)c1cc(Cl)cc(NC(=O)NS(=O)(=O)N(c2cnn(C)c2)C2CCOCC2)c1 [Compound 89]
The IC50 of the first is higher: 10 to 50 µM for the first, 1 to 3 µM for the second.

`Cn1cc(N(C2CCOCC2)S(=O)(=O)NC(=O)Nc2cc(Cl)cc(OC(F)(F)F)c2)cn1` [Compound 92] and `Cn1cc(N(C2CCOCC2)S(=O)(=O)NC(=O)Nc2cc(Cl)cc(Cl)c2)cn1` [Compound 72] fall in the same range of IC50: 1 to 3 µM for the first, 1 to 3 µM for the second.

`COCCn1cc(N(C2CCN(C)CC2)S(=O)(=O)NC(=O)Nc2c3c(cc4c2CCC4)CCC3)cn1` [Compound 38] and `COCn1cc(N(C2CCN(C)CC2)S(=O)(=O)NC(=O)Nc2c3c(cc4c2CCC4)CCC3)cn1` [Compound 28] cannot be ordered by IC50: under 1 µM for the first, under 1 µM for the second.

Compared with `CC(C)Cc1cc(Cl)cc(NC(=O)NS(=O)(=O)N(c2cnn(C)c2)C2CCOCC2)c1` [Compound 98], `CCCCc1cc(Cl)cc(NC(=O)NS(=O)(=O)N(c2cnn(C)c2)C2CCOCC2)c1` [Compound 115] is lower in IC50: 1 to 3 µM for the first, under 1 µM for the second.

`O=C(Nc1c2c(cc3c1CCC3)CCC2)NS(=O)(=O)N(c1cncnc1)C1CCOCC1` [Compound 17] and `CC(C)n1cc(N(C2CCOCC2)S(=O)(=O)NC(=O)Nc2c3c(cc4c2CCC4)CCC3)cn1` [Compound 4] cannot be ordered by IC50: under 1 µM for the first, under 1 µM for the second.

Compared with `Cc1ncc(N(C2CCOCC2)S(=O)(=O)NC(=O)Nc2c3c(cc4c2CCC4)CCC3)c(C)n1` [Compound 100], `Cn1cnc(N(C2CCOCC2)S(=O)(=O)NC(=O)Nc2c3c(cc4c2CCC4)CCC3)c1` [Compound 21] is higher in IC50: 1 to 3 µM for the first, 3 to 10 µM for the second. The first is the more potent here.

`CN1CC(N(c2cnn(C)c2)S(=O)(=O)NC(=O)Nc2c3c(cc4c2CCC4)CCC3)CCC1=O` (centres unmarked) [Compound 82] and `CN1CC(N(c2cnn(C)c2)S(=O)(=O)NC(=O)Nc2c3c(cc4c2CCC4)CCC3)C1` [Compound 59] cannot be ordered by IC50: under 1 µM for the first, under 1 µM for the second.

`CC(C)n1cc(N(C2CCN(C)C2)S(=O)(=O)NC(=O)Nc2c3c(cc4c2CCC4)CCC3)cn1` (centres unmarked) [Compound 56] and `CC(C)n1cc(N(C2CCCN(C)C2)S(=O)(=O)NC(=O)Nc2c3c(cc4c2CCC4)CCC3)cn1` (centres unmarked) [Compound 55] cannot be ordered by IC50: under 1 µM for the first, under 1 µM for the second.

`Cn1cc(N(C2CCOC2)S(=O)(=O)NC(=O)Nc2c3c(cc4c2CCC4)CCC3)cn1` (centres unmarked) [Compound 8] and `C[C@H]1CC(N(c2cnn(C)c2)S(=O)(=O)NC(=O)Nc2c3c(cc4c2CCC4)CCC3)CCO1` (some centres unmarked) [Compound 84] cannot be ordered by IC50: under 1 µM for the first, under 1 µM for the second.

`CN1CCC[C@@H]1CN(c1cnn(C)c1)S(=O)(=O)NC(=O)Nc1cc(Cl)cc(Cl)c1` [Compound 112] and `CN1CCC[C@@H]1CN(c1cnn(C)c1)S(=O)(=O)NC(=O)Nc1c2c(cc3c1CCC3)CCC2` [Compound 110] cannot be ordered by IC50: under 1 µM for the first, under 1 µM for the second.

`Cc1noc(N(C2CCCN(C)C2)S(=O)(=O)NC(=O)Nc2c3c(cc4c2CCC4)CCC3)c1C` (centres unmarked) [Compound 116] and `CN1CCCC(N(c2cnn(C)c2)S(=O)(=O)NC(=O)Nc2c3c(cc4c2CCC4)CCC3)C1` (centres unmarked) [Compound 23] cannot be ordered by IC50: under 1 µM for the first, under 1 µM for the second.

`CN1CCC(N(c2cnn(C3CC3)c2)S(=O)(=O)NC(=O)Nc2c3c(cc4c2CCC4)CCC3)CC1` [Compound 39] and `CN1CCC(N(c2cnn(C3CCC3)c2)S(=O)(=O)NC(=O)Nc2c3c(cc4c2CCC4)CCC3)CC1` [Compound 44] cannot be ordered by IC50: under 1 µM for the first, under 1 µM for the second.

`CC(C)N1CCCC(N(c2cnn(C)c2)S(=O)(=O)NC(=O)Nc2c3c(cc4c2CCC4)CCC3)C1` (centres unmarked) [Compound 52] and `CC(C)N1CCC(N(c2cnn(C)c2)S(=O)(=O)NC(=O)Nc2c3c(cc4c2CCC4)CCC3)C1` (centres unmarked) [Compound 51] cannot be ordered by IC50: under 1 µM for the first, under 1 µM for the second.

`Cn1cc(N(C2CCOC(C)(C)C2)S(=O)(=O)NC(=O)Nc2c3c(cc4c2CCC4)CCC3)cn1` (centres unmarked) [Compound 79] and `Cn1cc(N(C2CCOCC2(C)C)S(=O)(=O)NC(=O)Nc2c3c(cc4c2CCC4)CCC3)cn1` (centres unmarked) [Compound 78] cannot be ordered by IC50: under 1 µM for the first, under 1 µM for the second.

`CCN1CCC(N(c2cnn(C)c2)S(=O)(=O)NC(=O)Nc2c3c(cc4c2CCC4)CCC3)C1` (centres unmarked) [Compound 50] and `CCN1CCC(N(c2cnn(C)c2)S(=O)(=O)NC(=O)Nc2c3c(cc4c2CCC4)CCC3)CC1` [Compound 32] cannot be ordered by IC50: under 1 µM for the first, under 1 µM for the second.

`CN1CCC(N(c2cnn(C(F)F)c2)S(=O)(=O)NC(=O)Nc2c3c(cc4c2CCC4)CCC3)CC1` [Compound 34] and `CC(C)n1cc(N(C2CCN(C)CC2)S(=O)(=O)NC(=O)Nc2c3c(cc4c2CCC4)CCC3)cn1` [Compound 5] cannot be ordered by IC50: under 1 µM for the first, under 1 µM for the second.

First: CCc1cc(CC)cc(NC(=O)NS(=O)(=O)N(c2cnn(C)c2)C2CCOCC2)c1 [Compound 70]
Second: CCc1cc(C)cc(NC(=O)NS(=O)(=O)N(c2cnn(C)c2)C2CCOCC2)c1 [Compound 76]
The IC50 of the first is higher: 3 to 10 µM for the first, 1 to 3 µM for the second. The second is the more potent here.

`CCc1cc(NC(=O)NS(=O)(=O)N(c2cnn(C)c2)C2CCOCC2)cc(C(C)C)c1` [Compound 81] and `Cn1cc(N(C2CCOCC2)S(=O)(=O)NC(=O)Nc2cc(Cl)cc(Cl)c2F)cn1` [Compound 94] fall in the same range of IC50: 1 to 3 µM for the first, 1 to 3 µM for the second.

`CN1CCC(N(c2cnn(CC(F)(F)F)c2)S(=O)(=O)NC(=O)Nc2c3c(cc4c2CCC4)CCC3)CC1` [Compound 37] and `CN1CCC(N(c2cnn(C)c2)S(=O)(=O)NC(=O)Nc2c3c(cc4c2CCC4)CCC3)CC1` [Compound 2] cannot be ordered by IC50: under 1 µM for the first, under 1 µM for the second.

`COCCn1cc(N(C2CCOCC2)S(=O)(=O)NC(=O)Nc2c3c(cc4c2CCC4)CCC3)cn1` [Compound 29] and `O=C(Nc1c2c(cc3c1CCC3)CCC2)NS(=O)(=O)N(c1cnn(CC(F)F)c1)C1CCOCC1` [Compound 35] cannot be ordered by IC50: under 1 µM for the first, under 1 µM for the second.

`CCc1cc(N(C2CCOCC2)S(=O)(=O)NC(=O)Nc2c3c(cc4c2CCC4)CCC3)on1` [Compound 109] and `Cn1ccc(N(C2CCOCC2)S(=O)(=O)NC(=O)Nc2c3c(cc4c2CCC4)CCC3)n1` [Compound 9] cannot be ordered by IC50: under 1 µM for the first, under 1 µM for the second.

`Cc1nn(C)c(C)c1N(C1CCN(C)CC1)S(=O)(=O)NC(=O)Nc1c2c(cc3c1CCC3)CCC2` [Compound 15] and `CC(C)N1CCC(N(c2cnn(C)c2)S(=O)(=O)NC(=O)Nc2c3c(cc4c2CCC4)CCC3)CC1` [Compound 33] fall in the same range of IC50: 1 to 3 µM for the first, 1 to 3 µM for the second.

First: CN1CCC(CN(c2cnn(C)c2)S(=O)(=O)NC(=O)Nc2c3c(cc4c2CCC4)CCC3)CC1 [Compound 3]
Second: Cn1cc(N(CCN2CCC2)S(=O)(=O)NC(=O)Nc2c3c(cc4c2CCC4)CCC3)cn1 [Compound 63]
The IC50 of the first is higher: 1 to 3 µM for the first, under 1 µM for the second.

`CCc1cc(NC(=O)NS(=O)(=O)N(c2cnn(C)c2)C2CCCN(C)C2)cc(C(F)(F)F)c1` (centres unmarked) [Compound 97] and `Cn1cc(N(CCN2CCOCC2)S(=O)(=O)NC(=O)Nc2c3c(cc4c2CCC4)CCC3)cn1` [Compound 46] cannot be ordered by IC50: under 1 µM for the first, under 1 µM for the second.
